US20120116095A1, “GLYCINE TRANSPORTER INHIBITORS” (TAISHO PHARMACEUTICAL C0., LTD., priority 2009, published 2012)
Like-named read-outs stand apart in the source and are kept apart here.

Tests used:
[1] = biological target: T1, human type 1 glycine transporter (GlyT1) (Homo sapiens, UniProt P48067); assay: Glycine uptake inhibition experiment ([3H]glycine uptake in T98G cells); assay type: cell-based; conditions: [3H]glycine 250 nM, 15 min, room temperature
T1 construct: Glioma T98G cells endogenously expressing human type 1 glycine transporter (GlyT1) were used; endogenous in cells; host or cells: T98G human glioma cells
T1 sequence (P48067 1-706): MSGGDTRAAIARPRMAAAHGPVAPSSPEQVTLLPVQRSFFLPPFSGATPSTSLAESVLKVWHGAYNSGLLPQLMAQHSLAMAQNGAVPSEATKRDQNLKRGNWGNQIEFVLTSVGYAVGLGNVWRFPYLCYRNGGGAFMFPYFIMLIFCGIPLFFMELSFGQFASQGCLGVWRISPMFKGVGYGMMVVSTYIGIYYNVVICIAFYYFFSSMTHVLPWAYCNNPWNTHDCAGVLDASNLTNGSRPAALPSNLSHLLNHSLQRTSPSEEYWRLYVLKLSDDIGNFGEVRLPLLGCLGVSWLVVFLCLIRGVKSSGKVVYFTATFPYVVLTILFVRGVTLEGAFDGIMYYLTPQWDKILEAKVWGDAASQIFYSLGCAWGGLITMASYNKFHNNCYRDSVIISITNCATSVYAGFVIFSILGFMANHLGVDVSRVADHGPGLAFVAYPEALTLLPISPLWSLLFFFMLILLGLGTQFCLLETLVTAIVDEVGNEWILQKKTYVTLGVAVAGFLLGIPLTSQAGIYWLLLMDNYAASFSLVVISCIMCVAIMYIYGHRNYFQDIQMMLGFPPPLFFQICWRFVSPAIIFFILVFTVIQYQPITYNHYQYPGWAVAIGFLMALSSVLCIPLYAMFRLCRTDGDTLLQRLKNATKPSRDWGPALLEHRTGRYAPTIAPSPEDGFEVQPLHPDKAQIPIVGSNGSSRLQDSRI
Method: A glycine uptake experiment was conducted as described in Neuron, 8, 927-935, 1992. Glioma T98G cells endogenously expressing human type 1 glycine transporter (GlyT1) were used. T98G cells were seeded in a 96-well plate at 2.0×10^4 cells/well and cultured overnight in a CO2 incubator. A test compound was dissolved in a 100% DMSO solution and then dissolved in 10 mM HEPES buffer (pH 7.4) containing 150 mM sodium chloride, 1 mM calcium chloride, 5 mM potassium chloride, 1 mM magnesium chloride, 10 mM glucose and 0.2% bovine serum albumin. After removing the cell culture medium, the cells were pre-treated with the test compound for 10 minutes. Subsequently, the test compound and [^3H]glycine (final concentration: 250 nM) were added to the cells and incubated at room temperature for 15 minutes. After the incubation, the extracellular solution was aspirated with a manifold to remove the excess labeled glycine existing outside the cells, and the cells were then lysed with 0.5 M aqueous sodium hydroxide. The amount of glycine uptake was determined by measuring radioactivity in the cell lysate using a liquid scintillation counter. Glycine uptake in the presence of 10 μM ALX5407 was defined as non-specific uptake, and the value calculated by subtracting this non-specific uptake from the total uptake in the absence of 10 μM ALX5407 was defined as specific uptake. Moreover, an inhibition curve was obtained for each test compound at concentrations of […] to calculate the glycine uptake inhibitory activity (IC50 value) of each test substance.
It should be noted that ALX5407 is a HCl salt of N-[(3R)-3-([1,1′-biphenyl]-4-yloxy)-3-(4-fluorophenyl)propyl]-N-methylglycine.

P-glycoprotein (P-gp) = biological target: T2, P-glycoprotein (P-gp) (Homo sapiens, UniProt P08183); assay: Test for substrate recognition by P-gp (LLC-GA5-COL300 cells); assay type: in vitro ADME; conditions: 10 μM, Human MDR1-expressing LLC-GA5-COL300 cells, Apical to Basolateral and Basolateral to Apical
T2 construct: expressed in transfected cells; host or cells: LLC-GA5-COL300 (pig kidney LLC-PK1 cells expressing human MDR1)
Description: In the case of drugs that act on the central nervous system, it is generally important for such drugs to be transferred from blood into brain for development of their efficacy. In the blood-brain barrier, there is found P-glycoprotein (P-gp), which is a typical member of the efflux transporters that control drug penetration; and P-gp inhibits the penetration of its substrate drugs into the brain. Thus, in developing a drug, recognition performance as a P-gp substrate can be used as an indicator of brain penetration.
A test for substrate recognition by P-gp was conducted as described in J. Pharmacol. Exp. Ther. (1992) Vol. 263, No. 2, 840-845 and J. Biol. Chem. (1992) Vol. 267, No. 34, 24248-24252. Specifically, LLC-GA5-COL300 cells (i.e., a Human MDR1-expressing system originating from a pig kidney-derived cultured renal epithelial cell line, LLC-PK1) were used after being cultured for 4 days on trans wells, and the medium in each well was replaced by Hank's balanced salt solution (HBSS) immediately before use in the test. After a test compound solution (i.e., a DMSO solution of a test compound, which was further diluted with HBSS and adjusted to a final concentration of 10 μM) was added to the Donor side of the LLC-GA5-COL300 cells, aliquots of HBSS were sampled over time from the Acceptor side to determine the test compound concentration in each collected sample by LC-MS/MS.
The membrane permeability coefficient (×10^−6 cm/sec) was calculated by the accumulated amount of the compound into the Acceptor side for both directions, Apical to Basolateral and Basolateral to Apical. and the ratio of these coefficients (Efflux Ratio) was then used to evaluate substrate recognition by P-gp.

[2] = read-out: glycine uptake inhibitory activity (IC50 value)
[3] = read-out: glycine uptake inhibitory activity (IC50 value), bounds

T2 sequence (P08183 whole entry): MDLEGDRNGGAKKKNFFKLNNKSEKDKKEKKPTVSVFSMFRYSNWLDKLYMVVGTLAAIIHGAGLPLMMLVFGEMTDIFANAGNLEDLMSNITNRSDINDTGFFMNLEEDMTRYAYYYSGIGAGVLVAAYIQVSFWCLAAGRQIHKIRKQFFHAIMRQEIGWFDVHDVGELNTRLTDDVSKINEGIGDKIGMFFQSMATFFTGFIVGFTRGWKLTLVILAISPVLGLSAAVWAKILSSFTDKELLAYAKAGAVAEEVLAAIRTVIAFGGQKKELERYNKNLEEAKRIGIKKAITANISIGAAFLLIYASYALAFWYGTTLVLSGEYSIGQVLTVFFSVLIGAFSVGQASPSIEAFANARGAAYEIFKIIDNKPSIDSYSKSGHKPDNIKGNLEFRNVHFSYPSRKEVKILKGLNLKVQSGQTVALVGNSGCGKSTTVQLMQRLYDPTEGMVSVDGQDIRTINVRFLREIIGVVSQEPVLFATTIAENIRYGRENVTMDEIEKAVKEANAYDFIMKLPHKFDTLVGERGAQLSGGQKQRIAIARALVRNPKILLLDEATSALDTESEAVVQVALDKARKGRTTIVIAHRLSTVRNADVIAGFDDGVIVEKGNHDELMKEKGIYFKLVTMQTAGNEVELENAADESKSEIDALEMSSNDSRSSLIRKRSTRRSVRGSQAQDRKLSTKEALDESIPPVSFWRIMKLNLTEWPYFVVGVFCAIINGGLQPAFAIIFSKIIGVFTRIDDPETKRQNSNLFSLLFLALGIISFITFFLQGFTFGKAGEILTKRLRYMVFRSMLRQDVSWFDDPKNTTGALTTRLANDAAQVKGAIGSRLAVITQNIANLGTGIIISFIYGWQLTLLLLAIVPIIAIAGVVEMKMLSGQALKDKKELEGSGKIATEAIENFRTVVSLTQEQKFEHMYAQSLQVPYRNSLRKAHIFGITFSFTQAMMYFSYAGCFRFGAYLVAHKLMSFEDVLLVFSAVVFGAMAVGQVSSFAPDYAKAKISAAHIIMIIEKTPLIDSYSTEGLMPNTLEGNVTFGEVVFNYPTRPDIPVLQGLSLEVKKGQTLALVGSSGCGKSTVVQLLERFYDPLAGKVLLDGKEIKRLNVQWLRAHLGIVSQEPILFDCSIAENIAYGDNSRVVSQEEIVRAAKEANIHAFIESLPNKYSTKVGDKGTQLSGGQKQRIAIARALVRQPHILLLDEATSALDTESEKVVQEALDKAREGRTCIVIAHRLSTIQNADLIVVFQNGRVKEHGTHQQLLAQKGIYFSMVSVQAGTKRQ

Row | IC50 [1, 2] | recognition as a P-gp substrate (Efflux Ratio criteria) (P-glycoprotein (P-gp)) | IC50 [1, 3] | SMILES
1 | 48.9 nM | – | – | CC(C)N(Cc1ccc(F)c(-c2ccc(OC(F)F)cc2)c1)C(=O)c1cn(C)cn1 [Compound 35]
2 | 11.6 nM | not to be recognized as a P-gp substrate | – | CC(C)N(Cc1ccc(F)c(-c2ccccc2)c1)C(=O)c1cn(C)cn1 [Compound 22]
3 | – | – | > 1000 nM | CC(C)N(Cc1cc(OC(F)(F)F)cc(-c2ccc(F)cc2)c1)C(=O)c1cn(C)cn1 [Compound 50]
4 | 18.6 nM | – | – | COc1ccc(-c2cc(CN(C(=O)c3cn(C)cn3)C(C)C)ccc2F)cc1F [Compound 19]
5 | – | – | > 1000 nM | CC(C)N(Cc1cc(-c2ccc(OC(F)(F)F)cc2)cc(C(F)(F)F)c1)C(=O)c1cn(C)cn1 [Compound 48]
6 | 7.19 nM | not to be recognized as a P-gp substrate | – | CC(C)N(Cc1ccc(F)c(-c2cccc(F)c2)c1)C(=O)c1cn(C)cn1 [Compound 20]
7 | – | – | > 1000 nM | COc1ccc(CN(C(=O)c2cn(C)cn2)C(C)C)cc1-c1ccc(F)cc1 [Compound 43]
8 | – | – | ≥ 100 nM | CC(C)N(Cc1ccc(F)c(-c2ccc(OC(F)(F)F)cc2)c1)C(=O)c1ncn(C)n1 [Compound 4]
9 | – | – | > 1000 nM | CC(C)N(Cc1cc(-c2ccc(F)cc2)cc(C(F)(F)F)c1)C(=O)c1cn(C)cn1 [Compound 49]
10 | 2.78 nM | – | – | Cn1cnc(C(=O)N(Cc2ccc(F)c(-c3cccc(CO)c3)c2)C2CCCC2)c1 [Compound 14]
11 | – | – | ≥ 100 nM | CC(C)N(Cc1ccc(Cl)c(-c2ccc(F)cc2)c1)C(=O)c1cn(C)cn1 [Compound 51]
12 | 22.6 nM | – | – | CC(C)N(Cc1ccc(F)c(-c2cc(F)cc(F)c2)c1)C(=O)c1cn(C)cn1 [Compound 28]
13 | 49.4 nM | – | – | CC(C)N(Cc1ccc(F)c(-c2cccc(OC(F)F)c2)c1)C(=O)c1cn(C)cn1 [Compound 34]
14 | 21.4 nM | – | – | CC(C)N(Cc1ccc(F)c(-c2cccc(OC(F)(F)F)c2)c1)C(=O)c1cn(C)cn1 [Compound 15]
15 | 12.6 nM | – | – | COC(=O)c1cccc(-c2cc(CN(C(=O)c3ncn(C)n3)C3CCCCC3)ccc2F)c1 [Compound 2]
16 | 48.3 nM | – | – | CCn1cnc(C(=O)N(Cc2ccc(F)c(-c3cc(F)c(F)c(F)c3)c2)C(C)C)c1 [Compound 42]
17 | – | – | ≥ 100 nM | CC(C)N(Cc1ccc(F)c(-c2ccc(C(F)(F)F)cc2)c1)C(=O)c1cn(C)cn1 [Compound 30]
18 | 40 nM | – | – | CC(C)N(Cc1ccc(F)c(-c2ccc(Cl)cc2)c1)C(=O)c1cn(C)cn1 [Compound 26]
19 | – | not to be recognized as a P-gp substrate | > 1000 nM | CC(C)N(Cc1ccc(F)c(-c2ccc(OC(F)(F)F)cc2)c1)C(=O)c1c[nH]cn1 [Compound 54]
20 | 13.6 nM | – | – | CCOc1cccc(-c2cc(CN(C(=O)c3cn(C)cn3)C(C)C)ccc2F)c1 [Compound 21]
21 | 21.4 nM | – | – | CC(C)N(Cc1ccc(F)c(-c2ccccc2F)c1)C(=O)c1cn(C)cn1 [Compound 23]
22 | 41.5 nM | – | – | COCCN(Cc1ccc(F)c(-c2ccc(OC(F)(F)F)cc2)c1)C(=O)c1cn(C)cn1 [Compound 16]

Row | IC50 [1, 2] | recognition as a P-gp substrate (Efflux Ratio criteria) (P-glycoprotein (P-gp)) | IC50 [1, 3] | SMILES
23 | – | – | > 1000 nM | Cc1ccc(CN(C(=O)c2cn(C)cn2)C(C)C)cc1-c1ccc(OC(F)(F)F)cc1 [Compound 46]
24 | 25.9 nM | – | – | CC(C)N(Cc1ccc(F)c(-c2cccc(CO)c2)c1)C(=O)c1cn(C)cn1 [Compound 7]
25 | 30.7 nM | – | – | CC(CO)N(Cc1ccc(F)c(-c2ccc(OC(F)(F)F)cc2)c1)C(=O)c1cn(C)cn1 (stereo not drawn) [Compound 52]
26 | 35.1 nM | – | – | CCC(CC)N(Cc1ccc(F)c(-c2cccc(CO)c2)c1)C(=O)c1cn(C)cn1 [Compound 11]
27 | – | – | > 1000 nM | CC(C)N(Cc1ccc(F)c(-c2cc(F)c(F)c(F)c2)c1)C(=O)c1c[nH]cn1 [Compound 41]
28 | 21 nM | – | – | Cn1cnc(C(=O)N(Cc2ccc(F)c(-c3ccc(F)c(F)c3)c2)C2CCCC2)c1 [Compound 31]
29 | – | – | ≥ 100 nM | CC(C)N(Cc1ccc(F)c(-c2ccc(C#N)cc2F)c1)C(=O)c1cn(C)cn1 [Compound 37]
30 | – | – | > 1000 nM | Cc1ccc(CN(C(=O)c2cn(C)cn2)C(C)C)cc1-c1ccc(F)cc1 [Compound 47]
31 | – | – | ≥ 100 nM | C=C(C)N(Cc1ccc(F)c(-c2ccc(OC(F)(F)F)cc2)c1)C(=O)c1cn(C)cn1 [Compound 53, N-{[6-Fluoro-4′-(trifluoromethoxy)biphenyl-3-yl]methyl}-1-methyl-N-(prop-1-en-2-yl)-1H-imidazole-4-carboxamide]
32 | 18.8 nM | not to be recognized as a P-gp substrate | – | CC(C)N(Cc1ccc(F)c(-c2ccc(F)c(F)c2)c1)C(=O)c1cn(C)cn1 [Compound 17]
33 | 48.5 nM | – | – | CC(C)N(Cc1ccc(F)c(-c2cc(F)cc(C#N)c2)c1)C(=O)c1cn(C)cn1 [Compound 39]
34 | 11 nM | – | – | Cn1cnc(C(=O)N(Cc2ccc(F)c(-c3cccc(CO)c3)c2)C2CCCCC2)c1 [Compound 8]
35 | 14.2 nM | not to be recognized as a P-gp substrate | – | COc1cccc(-c2cc(CN(C(=O)c3cn(C)cn3)C(C)C)ccc2F)c1 [Compound 24]
36 | – | – | ≥ 100 nM | CC(C)N(Cc1ccc(F)c(-c2cccc(CO)c2)c1)C(=O)c1ncn(C)n1 [Compound 5]
37 | 8.89 nM | not to be recognized as a P-gp substrate | – | CC(C)N(Cc1ccc(F)c(-c2ccc(F)cc2)c1)C(=O)c1cn(C)cn1 [Compound 18]
38 | 38.2 nM | not to be recognized as a P-gp substrate | – | CC(C)N(Cc1ccc(F)c(-c2cc(F)c(F)c(F)c2)c1)C(=O)c1cn(C)cn1 [Compound 36]
39 | 35.9 nM | – | – | CCn1cnc(C(=O)N(Cc2ccc(F)c(-c3ccc(OC(F)(F)F)cc3)c2)C(C)C)c1 [Compound 40, 1-Ethyl-N-{[6-fluoro-4′-(trifluoromethoxy)biphenyl-3-yl]methyl}-N-(propan-2-yl)-1H-imidazole-4-carboxamide]
40 | – | – | ≥ 100 nM | CC(C)CN(Cc1ccc(F)c(-c2ccc(F)c(F)c2)c1)C(=O)c1cn(C)cn1 [Compound 32]
41 | 4.33 nM | – | – | Cn1cnc(C(=O)N(Cc2ccc(F)c(-c3cccc(CO)c3)c2)C2CCC2)c1 [Compound 13, N-Cyclobutyl-N-{[6-fluoro-3′-(hydroxymethyl)biphenyl-3-yl]methyl}-1-methyl-1H-imidazole-4-carboxamide]
42 | – | – | ≥ 100 nM | CC(C)N(Cc1ccc(F)c(-c2cccc(OC(F)(F)F)c2)c1)C(=O)c1ncn(C)n1 [Compound 3]
43 | 14.6 nM | – | – | Cn1cnc(C(=O)N(Cc2ccc(F)c(-c3cccc(CO)c3)c2)C2CCCCC2)n1 [Compound 6]
44 | 25.4 nM | – | – | COc1ccc(-c2cc(CN(C(=O)c3cn(C)cn3)C(C)C)ccc2F)cc1 [Compound 25]
